Test results from patent publication US9738599B2, “Thromboxane receptor antagonists” (UNIVERSITY COLLEGE DUBLIN, NATIONAL UNIVERSITY OF IRELAND, …, priority 2012, dated 2017).

How the values were obtained:
TPβ = target: T1, TPβ (Homo sapiens, UniProt P21731); assay: U46619-induced [Ca2+]i mobilization in HEK.TPβ cells; format: cell-based; settings: for Reduction of U46619-mediated calcium mobilization in HEK.TPβ cells: at 1 & 10 μM concentrations; for Calcium mobilization, Percentage of Control, TPβ / remaining activity at 1 µM: 1 μM U46619, HEK.TPβ, mean ± S.E.M.; for remaining activity at 1 µM: read-out: Calcium mobilization, Percentage of Control, TPβ; for inhibition at 0.5 µM: antagonist 0.5 μM, read-out: Inhibition of U46619-mediated responses in HEK.TPβ cells
T1 construct: expressed in transfected cells
Text: (§1) The appropriate functional test for the evaluation of the agonistic and/or antagonistic potency of the compounds of the invention is the determination of calcium flux. Both TPα and […] are coupled to the G-protein Gαq. Therefore, stimulation of these receptors ultimately leads to a release of intracellular calcium ([Ca^2+]i) from intracellular stores. Consequently, the determination of [Ca^2+]i flux represents an appropriate functional test for the evaluation of the agonistic/antagonistic potency of compounds of the invention. Calcium can be measured using a molecule characterized by the covalent combination of a Ca^2+ chelating group and a fluorophore group. The Ca^2+ binding properties of these indicators are formed by the presence of a tetracarboxylic acid core as found for example in EGTA (ethylene glycol bis(2-aminoethyl) tetraacetic acid). Binding of Ca^2+ produces a wavelength shift in either the excitation or emission fluorescence spectra or a change in the emission intensity. Whereas the Ca^2+ binding to EGTA is pH dependent, recent dyes are designed from an EGTA derivative, BAPTA (1, 2-Bis(2-Aminophenoxy)ethane-N, N, N′, N′-Tetraacetic Acid). Loading of these dyes inside cells commonly uses esterified forms (acetoxymethyl ester), which are able to cross the cell membranes and are subsequently hydrolyzed by esterases inside the cell.
(§2) Estimation of [Ca^2+]i flux is calculated from the fluorescence signal (F). For calibration, the maximal fluorescence (Fmax, Ca^2+-saturated form of the dye) as well as minimal fluorescence (Fmin, Ca^2+-free form of the dye) must be determined. These parameters are determined usually in situ after the experiment, for example by subsequent addition to the mixture of a cell-disrupting agent that releases all Ca^2+ such as Triton X100 and a potent Ca^2+-chelating agent such as EGTA. After subtraction of background fluorescence, [Ca^2+]i flux can be calculated for non-ratiometric indicators.
(§3) Intracellular [Ca^2+]i fluxes were measured using a fluorescence plate reader following a modified protocol of Kassack et al., Quantitative comparison of functional screening by measuring intracellular Ca^2+ with radioligand binding at recombinant human dopamine receptors. AAPS Pharmsci, 2002, 4(4); 102-111, in cell lines (e.g. HEK293 or other cell type) endogenously-expressing or over-expressing either TPα, TPβ or any other receptor or protein to be screened.
(§4) By way of example, HEK 293 cells which have been grown for 3-4 days in normal growth media (minimum essential media containing 10% FBS and 2 mmol/l L-glutamine), under normal growth conditions (37° C., in humidified 5% CO2 atmosphere) are washed and harvested in KREBs-HEPES buffer (118 mM NaCl, 4.7 mM KCl, 1.2 mM MgSO4, 1.2 mM KH2PO4, 4.2 mM NaHCO3, 11.7 mM D-glucose, 1.3 mM CaCl2, 10 mM HEPES, pH 7.4). Cells are then incubated with 3 µM Fluo-4 in KREBs-HEPES buffer containing 1% Pluoronic F-127, for 1 hr at 25° C. with agitation. Thereafter, cells are washed in KREBs-HEPES buffer containing 0.5% bovine serum albumin and resuspended at a final concentration of 3×10^5 cells/ml. Approximately, 5.4×10^4 cells per well are plated in a 96-well plate and pre-incubated with test compounds for 10 min prior to measuring the fluorescence intensity at 520 nm for 25 seconds at 1 second intervals to monitor baseline using the Fluoroskan Ascent. Agonist (e.g., 1 μM U46619) is injected into separate wells by the automatic pipettor and fluorescence intensity is monitored at 520 nm for 75 seconds at 1 second intervals. Thereafter, Triton X100 and EGTA are added sequentially where Fmax refers to maximal fluorescence intensity measured after permeabilization of the cells with 2% Triton X100 and Fmin refers to fluorescence intensity measured after addition of 1 mM EGTA.
(§5) The dye Fluo-4 has its excitation peak at 480 nm, in the visible spectra, which spare cells to be damaged by UV (340-360 nm) stimulation and reduces auto-fluorescence of cells. […]

TPα = target: T2, TPα (Homo sapiens, UniProt P21731); assay: U46619-induced [Ca2+]i mobilization in HEK.TPα cells; format: cell-based; settings: 1 μM U46619, mean ± S.E.M.
T2 construct: expressed in transfected cells
T2 sequence (P21731 1-343): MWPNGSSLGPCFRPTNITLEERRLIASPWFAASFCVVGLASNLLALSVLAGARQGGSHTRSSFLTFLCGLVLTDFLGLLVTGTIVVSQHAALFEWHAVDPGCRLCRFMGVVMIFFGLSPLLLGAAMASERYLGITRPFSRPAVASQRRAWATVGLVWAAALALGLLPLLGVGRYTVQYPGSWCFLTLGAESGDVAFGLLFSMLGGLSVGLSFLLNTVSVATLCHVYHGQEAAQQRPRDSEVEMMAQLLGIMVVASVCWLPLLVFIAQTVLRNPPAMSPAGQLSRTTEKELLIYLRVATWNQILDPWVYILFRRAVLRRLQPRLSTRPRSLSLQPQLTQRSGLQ
Text: as §1, §2, §3, §4, §5

platelets in whole blood = assay: U46619-mediated platelet aggregation in whole blood (Sysmex haematological analyzer); format: cell-based, human; settings: antagonist 0.1 μM, 1 μM U46619 for 3 min
Experimental: From an efficacy point of view, this is an important assay and, physiologically, relevant with respect to the therapeutic target.
Initially, the Sysmex haematological analyzer was used to examine the effect of the TP antagonists at a single concentration (0.1 μM) on U46619 (1 μM)-mediated platelet aggregation in whole blood.
FIG. 3 illustrates effects of the TP antagonist compounds on U46619-mediated platelet aggregation. Blood was taken form healthy volunteer by venupuncture into syringes containing 3.8% sodium citrate, 10 μM Indomethacin, such that the ratio of anticoagulant: blood was 1:9. The blood was aliquoted and incubated for 10 min with TP20 and selected NTP compounds, as indicated, where the antagonist were used at 0.1 μM prior to stimulation with 1 μM U46619 for 3 min. The blood was fixed with formaldehyde and platelet numbers counted using the Sysmex haematological analyzer. Data is presented as the mean percentage of control or non-treated blood sample (Percentage of Control; %) and represent data from 3 independent experiments were samples were treated in duplicate.

T1 sequence (P21731 1-407 isoform P21731-2): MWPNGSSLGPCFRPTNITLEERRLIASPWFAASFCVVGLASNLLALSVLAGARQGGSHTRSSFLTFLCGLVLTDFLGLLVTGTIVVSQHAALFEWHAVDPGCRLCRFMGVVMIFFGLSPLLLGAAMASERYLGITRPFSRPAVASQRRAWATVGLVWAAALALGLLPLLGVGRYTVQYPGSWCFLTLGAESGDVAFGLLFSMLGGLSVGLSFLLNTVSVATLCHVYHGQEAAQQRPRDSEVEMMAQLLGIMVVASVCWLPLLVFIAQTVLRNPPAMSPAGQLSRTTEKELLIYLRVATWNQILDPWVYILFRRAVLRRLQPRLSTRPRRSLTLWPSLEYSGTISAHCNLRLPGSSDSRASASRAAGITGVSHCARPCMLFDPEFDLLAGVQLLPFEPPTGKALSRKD

Row | SMILES | Calcium mobilization, Percentage of Control, TPα (TPα; antagonist 1 μM) [%] | Calcium mobilization, Percentage of Control, TPα (TPα; antagonist 10 μM) [%] | Calcium mobilization, Percentage of Control, TPβ (TPβ; antagonist 1 μM) [%] | Calcium mobilization, Percentage of Control, TPβ (TPβ; antagonist 10 μM) [%] | also measured
1 | Cc1ccc(Nc2ccc([N+](=O)[O-])cc2S(=O)(=O)NC(=O)NC(C)(C)C)cc1 [BM573, reference compound] | – | – | – | – | Reduction of U46619-mediated calcium mobilization in HEK.TPβ cells (TPβ): potently inhibited
2 | COc1ccc(-c2cccc(Oc3ccc(C(F)(F)F)cc3S(=O)(=O)NC(=O)NC(C)(C)C)c2)cc1 [NTP3, N-(tert-butylcarbamoyl)-2-((4′-methoxy-[1,1-biphenyl]-3-yl)oxy)-5-(trifluoromethyl) benzenesulfonamide] | 69.6 ± 5.92 | 41.6 ± 5.45 | 46.0 ± 5.92 | 14.8 ± 2.44 | –
3 | COc1ccc(-c2cccc(Oc3ccc(F)cc3S(=O)(=O)NC(=O)NC(C)(C)C)c2)cc1 [NTP8, N-(tert-butylcarbamoyl)-5-fluoro-2-((4′-methoxy-[1,1′-biphenyl]-3-yl)oxy)benzene-sulfonamide] | – | – | – | – | remaining activity at 1 µM (TPβ; antagonist 1 μM): 5.94 ± 1.85%
4 | COc1ccc(-c2cccc(Oc3ccc(C(=O)N4CC(O)C4)cc3S(=O)(=O)NC(=O)NC(C)(C)C)c2)cc1 [NTP23, N-(tert-butylcarbamoyl)-5-(3-hydroxyazetidine-1-carbonyl)-2-((4′-methoxy-[1,1′-biphenyl]-3-yl)oxy)benzenesulfonamide] | – | – | – | – | remaining activity at 1 µM (TPβ; antagonist 1 μM): 4.84 ± 2.75%
5 | COc1ccc(-c2cccc(Oc3ccc(S(C)(=O)=O)cc3S(=O)(=O)NC(=O)NC(C)(C)C)c2)cc1 [NTP27, N-(tert-butylcarbamoyl)-2-((4′-methoxy-[1,1′-biphenyl]-3-yl)oxy)-5-(methylsulfonyl) benzenesulfonamide] | 81.1 ± 10.2 | 68.4 ± 4.56 | 36.4 ± 3.80 | 16.3 ± 2.39 | –
6 | COc1ccc(-c2cccc(Oc3ccc(Cl)cc3S(=O)(=O)NC(=O)NC(C)(C)C)c2)cc1 [NTP30, N-(tert-butylcarbamoyl)-5-chloro-2-((4′-methoxy-[1,1′-biphenyl]-3-yl)oxy) benzenesulfonamide] | 52.2 ± 3.90 | 23.3 ± 3.63 | 46.5 ± 5.86 | 9.31 ± 1.57 | –
7 | COc1ccc(-c2cccc(Oc3cc(C)c(C#N)cc3S(=O)(=O)NC(=O)NC(C)(C)C)c2)cc1 [NTP32, N-(tert-butylcarbamoyl)-5-cyano-2-((4′-methoxy-[1,1′-biphenyl]-3-yl)oxy)-4-methyl benzenesulfonamide] | 80.3 ± 4.21 | 69.3 ± 2.07 | 93.6 ± 4.06 | 46.2 ± 4.83 | –
8 | COc1ccc(-c2cccc(Oc3ccc([N+](=O)[O-])cc3S(=O)(=O)NC(=O)NC(C)(C)C)c2)cc1 [TP20, N-(tert-butylcarbamoyl)-2-((4′-methoxy-[1,1′-biphenyl]-3-yl)oxy)-5-nitrobenzene-sulfonamide] | – | – | – | – | inhibition at 0.5 µM (TPβ): > 50%; Reduction of U46619-mediated calcium mobilization in HEK.TPβ cells (TPβ): approx. 90%; Inhibition of the U46619-mediated reduction in platelet number (platelets in whole blood): almost completely inhibited
9 | CC(C)(C)NC(=O)NS(=O)(=O)c1cc([N+](=O)[O-])ccc1Oc1cccc(-c2ccc(C(F)(F)F)cc2)c1 [XII] | – | – | – | – | inhibition at 0.5 µM (TPβ): > 50%
